Measurements published in patent US20090105270A1, “Kinase inhibition and anticancer therapy” (priority 2007, published 2009).

What was measured:
PAK5(h) = PAK5(h) (Homo sapiens, UniProt Q9P286); experiment: Upstate kinase activity inhibition assay PAK5(h); conditions: 40 min, read-out: percentage of enzyme activity that remains
CaMKIV(h) = CaMKIV(h) (Homo sapiens, UniProt Q16566); experiment: Upstate kinase activity inhibition assay CaMKIV(h); conditions: 40 min, read-out: percentage of enzyme activity that remains
Flt3(D835Y)(h) = Flt3(D835Y)(h) (Homo sapiens, UniProt P36888, D835Y); experiment: Upstate kinase activity inhibition assay Flt3(D835Y)(h); conditions: 40 min, read-out: percentage of enzyme activity that remains
NEK11(h) = NEK11(h) (Homo sapiens, UniProt Q8NG66); experiment: Upstate kinase activity inhibition assay NEK11(h); conditions: 40 min, read-out: percentage of enzyme activity that remains
Hck(h) = target: T1, Hck(h) (Homo sapiens, UniProt P08631); experiment: Upstate kinase activity inhibition assay Hck(h); format: biochemical; conditions: 40 min; read-out: percentage of enzyme activity that remains
T1 construct: purchased Upstate (KinaseProfiler service)

PASK(h) = target: T2, PASK(h) (Homo sapiens, UniProt Q96RG2); experiment: Upstate kinase activity inhibition assay PASK(h); format: biochemical; conditions: 40 min; read-out: percentage of enzyme activity that remains
T2 construct: purchased Upstate (KinaseProfiler service)

CSK(h) = target: T3, CSK(h) (Homo sapiens, UniProt P41240); experiment: Upstate kinase activity inhibition assay CSK(h); format: biochemical
T3 construct: purchased Upstate (KinaseProfiler service)

PKG1β(h) = target: T4, PKG1β(h) (Homo sapiens, UniProt Q13976); experiment: Upstate kinase activity inhibition assay PKG1β(h); format: biochemical; conditions: 40 min; read-out: percentage of enzyme activity that remains
T4 construct: purchased Upstate (KinaseProfiler service)

WNK2(h) = target: T5, WNK2(h) (Homo sapiens, UniProt Q9Y3S1); experiment: Upstate kinase activity inhibition assay WNK2(h); format: biochemical; conditions: 40 min; read-out: percentage of enzyme activity that remains
T5 construct: purchased Upstate (KinaseProfiler service)

Rse(h) = target: T6, Rse(h) (Homo sapiens, UniProt Q06418); experiment: Upstate kinase activity inhibition assay Rse(h); format: biochemical; conditions: 40 min; read-out: percentage of enzyme activity that remains
T6 construct: purchased Upstate (KinaseProfiler service)

ZAP-70(h) = target: T7, ZAP-70(h) (Homo sapiens, UniProt P43403); experiment: Upstate kinase activity inhibition assay ZAP-70(h); format: biochemical; conditions: 40 min; read-out: percentage of enzyme activity that remains
T7 construct: purchased Upstate (KinaseProfiler service)

PKG1α(h) = target: T8, PKG1α(h) (Homo sapiens, UniProt Q13976); experiment: Upstate kinase activity inhibition assay PKG1α(h); format: biochemical; conditions: 40 min; read-out: percentage of enzyme activity that remains
T8 construct: purchased Upstate (KinaseProfiler service)

SAPK3(h) = target: T9, SAPK3(h) (Homo sapiens, UniProt P53778); experiment: Upstate kinase activity inhibition assay SAPK3(h); format: biochemical; conditions: 40 min; read-out: percentage of enzyme activity that remains
T9 construct: purchased Upstate (KinaseProfiler service)

MSSK1(h) = MSSK1(h) (Homo sapiens, UniProt Q9UPE1); experiment: Upstate kinase activity inhibition assay MSSK1(h); conditions: 40 min, read-out: percentage of enzyme activity that remains
BrSK1(h) = target: T10, BrSK1(h) (Homo sapiens, UniProt Q8TDC3); experiment: Upstate kinase activity inhibition assay BrSK1(h); format: biochemical; conditions: 40 min; read-out: percentage of enzyme activity that remains
T10 construct: purchased Upstate (KinaseProfiler service)

Pim-2(h) = target: T11, Pim-2(h) (Homo sapiens, UniProt Q9P1W9); experiment: Upstate kinase activity inhibition assay Pim-2(h); format: biochemical; conditions: 40 min; read-out: percentage of enzyme activity that remains
T11 construct: purchased Upstate (KinaseProfiler service)

p70S6K(h) = target: T12, p70S6K(h) (Homo sapiens, UniProt P23443); experiment: Upstate kinase activity inhibition assay p70S6K(h); format: biochemical; conditions: 40 min; read-out: percentage of enzyme activity that remains
T12 construct: purchased Upstate (KinaseProfiler service)

ROCK-II(h) = ROCK-II(h) (Homo sapiens, UniProt O75116); experiment: Upstate kinase activity inhibition assay ROCK-II(h); conditions: 40 min, read-out: percentage of enzyme activity that remains
Met(h) = Met(h) (Homo sapiens, UniProt P08581); experiment: Upstate kinase activity inhibition assay Met(h)
Flt3(h) = Flt3(h) (Homo sapiens, UniProt P36888); experiment: Upstate kinase activity inhibition assay Flt3(h); conditions: 40 min, read-out: percentage of enzyme activity that remains
MINK(h) = target: T13, MINK(h) (Homo sapiens, UniProt Q8N4C8); experiment: Upstate kinase activity inhibition assay MINK(h); format: biochemical; conditions: 40 min; read-out: percentage of enzyme activity that remains
T13 construct: purchased Upstate (KinaseProfiler service)

TBK1(h) = TBK1(h) (Homo sapiens, UniProt Q9UHD2); experiment: Upstate kinase activity inhibition assay TBK1(h); conditions: 40 min, read-out: percentage of enzyme activity that remains
NEK6(h) = target: T14, NEK6(h) (Homo sapiens, UniProt Q9HC98); experiment: Upstate kinase activity inhibition assay NEK6(h); format: biochemical; conditions: 40 min; read-out: percentage of enzyme activity that remains
T14 construct: purchased Upstate (KinaseProfiler service)

JAK2(h) = target: T15, JAK2(h) (Homo sapiens, UniProt O60674); experiment: Upstate kinase activity inhibition assay JAK2(h); format: biochemical
T15 construct: purchased Upstate (KinaseProfiler service)

MSK2(h) = MSK2(h) (Homo sapiens, UniProt O75676); experiment: Upstate kinase activity inhibition assay MSK2(h); conditions: 40 min, read-out: percentage of enzyme activity that remains
SAPK2a(h) = SAPK2a(h) (Homo sapiens, UniProt Q16539); experiment: Upstate kinase activity inhibition assay SAPK2a(h)
DMPK(h) = DMPK(h) (Homo sapiens, UniProt Q09013); experiment: Upstate kinase activity inhibition assay DMPK(h); conditions: 40 min, read-out: percentage of enzyme activity that remains
BrSK2(h) = target: T16, BrSK2(h) (Homo sapiens, UniProt Q8IWQ3); experiment: Upstate kinase activity inhibition assay BrSK2(h); format: biochemical; conditions: 40 min; read-out: percentage of enzyme activity that remains
T16 construct: purchased Upstate (KinaseProfiler service)

IRAK4(h) = target: T17, IRAK4(h) (Homo sapiens, UniProt Q9NWZ3); experiment: Upstate kinase activity inhibition assay IRAK4(h); format: biochemical; conditions: 4 μM Compound E
T17 construct: purchased Upstate (KinaseProfiler service)

MLK1(h) = MLK1(h) (Homo sapiens, UniProt P80192); experiment: Upstate kinase activity inhibition assay MLK1(h); conditions: 40 min, read-out: percentage of enzyme activity that remains

SAPK2a(h), sequence (Q16539 whole entry): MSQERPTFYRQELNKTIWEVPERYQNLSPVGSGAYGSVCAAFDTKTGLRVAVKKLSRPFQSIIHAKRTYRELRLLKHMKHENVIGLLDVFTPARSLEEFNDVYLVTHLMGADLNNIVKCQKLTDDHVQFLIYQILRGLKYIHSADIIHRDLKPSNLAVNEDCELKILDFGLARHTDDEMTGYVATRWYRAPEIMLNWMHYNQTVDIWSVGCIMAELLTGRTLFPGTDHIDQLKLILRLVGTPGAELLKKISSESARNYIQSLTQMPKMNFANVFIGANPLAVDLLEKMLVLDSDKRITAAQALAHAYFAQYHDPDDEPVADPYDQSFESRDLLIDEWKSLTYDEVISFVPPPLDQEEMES
T10 sequence (Q8TDC3 whole entry): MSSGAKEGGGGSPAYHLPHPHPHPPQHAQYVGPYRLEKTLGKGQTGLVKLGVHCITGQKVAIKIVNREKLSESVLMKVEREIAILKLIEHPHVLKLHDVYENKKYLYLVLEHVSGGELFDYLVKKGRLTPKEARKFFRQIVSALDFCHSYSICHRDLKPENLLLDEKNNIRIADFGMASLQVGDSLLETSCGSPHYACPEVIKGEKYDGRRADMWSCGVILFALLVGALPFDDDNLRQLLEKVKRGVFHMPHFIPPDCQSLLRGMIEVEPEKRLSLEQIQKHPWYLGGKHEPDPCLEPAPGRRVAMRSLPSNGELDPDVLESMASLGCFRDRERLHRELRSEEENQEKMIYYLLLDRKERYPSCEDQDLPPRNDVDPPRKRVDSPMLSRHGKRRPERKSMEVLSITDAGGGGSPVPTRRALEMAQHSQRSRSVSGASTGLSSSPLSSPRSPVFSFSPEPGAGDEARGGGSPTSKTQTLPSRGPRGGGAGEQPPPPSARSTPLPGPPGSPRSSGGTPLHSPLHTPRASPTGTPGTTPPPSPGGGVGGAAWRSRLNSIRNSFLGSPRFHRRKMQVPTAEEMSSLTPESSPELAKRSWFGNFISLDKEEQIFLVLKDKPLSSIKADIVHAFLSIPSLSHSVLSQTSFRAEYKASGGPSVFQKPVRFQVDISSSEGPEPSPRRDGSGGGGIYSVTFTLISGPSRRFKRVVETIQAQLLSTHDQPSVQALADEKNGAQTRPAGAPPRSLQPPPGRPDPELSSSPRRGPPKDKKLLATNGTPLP
T3 sequence (P41240 whole entry): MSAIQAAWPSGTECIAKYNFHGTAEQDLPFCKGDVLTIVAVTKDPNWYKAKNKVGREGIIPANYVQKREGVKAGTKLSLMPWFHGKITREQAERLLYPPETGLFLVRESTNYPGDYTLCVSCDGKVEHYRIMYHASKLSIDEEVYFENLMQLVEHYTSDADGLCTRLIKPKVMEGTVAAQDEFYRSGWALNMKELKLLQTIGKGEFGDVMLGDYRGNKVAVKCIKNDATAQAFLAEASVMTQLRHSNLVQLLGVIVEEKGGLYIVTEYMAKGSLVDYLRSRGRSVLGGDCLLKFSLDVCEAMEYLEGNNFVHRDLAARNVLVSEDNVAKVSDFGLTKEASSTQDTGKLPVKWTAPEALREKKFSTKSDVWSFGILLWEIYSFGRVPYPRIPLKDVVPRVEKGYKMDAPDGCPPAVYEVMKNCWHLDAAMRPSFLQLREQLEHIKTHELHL
T9 sequence (P53778 whole entry): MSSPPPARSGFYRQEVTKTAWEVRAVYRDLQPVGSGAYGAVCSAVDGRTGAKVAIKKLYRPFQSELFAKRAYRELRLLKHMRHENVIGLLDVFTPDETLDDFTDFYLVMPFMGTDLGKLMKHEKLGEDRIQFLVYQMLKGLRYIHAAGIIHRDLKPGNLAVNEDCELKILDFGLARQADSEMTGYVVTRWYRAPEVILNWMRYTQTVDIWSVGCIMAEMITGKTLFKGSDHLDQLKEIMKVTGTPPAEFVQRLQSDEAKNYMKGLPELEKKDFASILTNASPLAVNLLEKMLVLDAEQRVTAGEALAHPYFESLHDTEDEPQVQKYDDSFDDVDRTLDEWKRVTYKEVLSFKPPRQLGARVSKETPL
T15 sequence (O60674 whole entry): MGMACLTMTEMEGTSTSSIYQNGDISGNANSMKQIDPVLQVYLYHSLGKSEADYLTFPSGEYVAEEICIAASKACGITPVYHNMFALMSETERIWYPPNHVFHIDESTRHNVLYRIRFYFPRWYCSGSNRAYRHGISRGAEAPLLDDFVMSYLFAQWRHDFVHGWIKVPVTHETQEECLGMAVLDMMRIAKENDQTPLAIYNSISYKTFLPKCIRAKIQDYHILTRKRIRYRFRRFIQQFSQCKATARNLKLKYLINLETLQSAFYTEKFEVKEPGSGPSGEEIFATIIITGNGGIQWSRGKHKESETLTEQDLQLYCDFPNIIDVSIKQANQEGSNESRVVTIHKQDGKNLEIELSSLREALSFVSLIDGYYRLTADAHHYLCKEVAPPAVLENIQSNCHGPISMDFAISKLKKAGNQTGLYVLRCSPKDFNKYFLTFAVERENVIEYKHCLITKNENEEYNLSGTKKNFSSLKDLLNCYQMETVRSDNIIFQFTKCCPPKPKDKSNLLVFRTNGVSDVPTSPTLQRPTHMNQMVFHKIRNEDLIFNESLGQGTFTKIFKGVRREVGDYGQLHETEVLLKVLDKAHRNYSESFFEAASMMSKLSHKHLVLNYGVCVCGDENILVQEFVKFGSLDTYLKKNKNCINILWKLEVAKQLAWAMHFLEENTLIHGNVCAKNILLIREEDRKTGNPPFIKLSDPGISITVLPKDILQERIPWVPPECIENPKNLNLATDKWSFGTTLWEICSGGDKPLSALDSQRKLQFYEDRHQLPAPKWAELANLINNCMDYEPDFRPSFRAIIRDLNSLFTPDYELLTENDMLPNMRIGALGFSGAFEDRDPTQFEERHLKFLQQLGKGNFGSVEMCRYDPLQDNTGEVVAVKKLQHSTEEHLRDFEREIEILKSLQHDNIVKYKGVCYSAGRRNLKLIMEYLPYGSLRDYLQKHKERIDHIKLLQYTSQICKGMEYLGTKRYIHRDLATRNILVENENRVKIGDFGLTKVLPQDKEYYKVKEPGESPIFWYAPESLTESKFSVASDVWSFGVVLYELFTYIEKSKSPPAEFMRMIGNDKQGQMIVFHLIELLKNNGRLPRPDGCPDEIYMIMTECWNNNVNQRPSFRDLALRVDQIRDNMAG
PAK5(h), sequence (Q9P286 whole entry): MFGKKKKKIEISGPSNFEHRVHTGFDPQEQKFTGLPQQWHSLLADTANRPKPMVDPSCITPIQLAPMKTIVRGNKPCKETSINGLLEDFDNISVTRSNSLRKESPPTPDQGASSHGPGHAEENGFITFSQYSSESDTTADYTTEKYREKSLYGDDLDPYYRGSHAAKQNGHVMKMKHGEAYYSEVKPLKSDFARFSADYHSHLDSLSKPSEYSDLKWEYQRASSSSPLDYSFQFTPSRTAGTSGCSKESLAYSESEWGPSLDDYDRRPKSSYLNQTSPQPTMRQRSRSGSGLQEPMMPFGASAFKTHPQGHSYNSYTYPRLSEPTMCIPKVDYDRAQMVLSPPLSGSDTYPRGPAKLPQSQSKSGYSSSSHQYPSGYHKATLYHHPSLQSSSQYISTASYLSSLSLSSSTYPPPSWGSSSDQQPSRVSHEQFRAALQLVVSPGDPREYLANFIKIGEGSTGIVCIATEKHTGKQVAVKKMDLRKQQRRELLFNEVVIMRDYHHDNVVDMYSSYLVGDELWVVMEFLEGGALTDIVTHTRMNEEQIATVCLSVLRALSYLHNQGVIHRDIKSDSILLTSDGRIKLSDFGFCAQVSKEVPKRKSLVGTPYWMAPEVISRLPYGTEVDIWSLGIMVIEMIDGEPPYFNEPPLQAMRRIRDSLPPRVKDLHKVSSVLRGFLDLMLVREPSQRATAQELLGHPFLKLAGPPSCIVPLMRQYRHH
T11 sequence (Q9P1W9 whole entry): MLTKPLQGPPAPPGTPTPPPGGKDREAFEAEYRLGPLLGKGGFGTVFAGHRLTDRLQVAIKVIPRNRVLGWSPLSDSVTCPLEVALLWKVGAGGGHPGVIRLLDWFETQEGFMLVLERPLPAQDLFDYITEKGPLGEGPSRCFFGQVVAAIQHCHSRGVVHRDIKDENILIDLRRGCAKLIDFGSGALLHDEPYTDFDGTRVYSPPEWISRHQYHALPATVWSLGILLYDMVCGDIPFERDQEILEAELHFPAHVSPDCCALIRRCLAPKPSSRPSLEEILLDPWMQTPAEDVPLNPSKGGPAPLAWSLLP
NEK11(h), sequence (Q8NG66 whole entry): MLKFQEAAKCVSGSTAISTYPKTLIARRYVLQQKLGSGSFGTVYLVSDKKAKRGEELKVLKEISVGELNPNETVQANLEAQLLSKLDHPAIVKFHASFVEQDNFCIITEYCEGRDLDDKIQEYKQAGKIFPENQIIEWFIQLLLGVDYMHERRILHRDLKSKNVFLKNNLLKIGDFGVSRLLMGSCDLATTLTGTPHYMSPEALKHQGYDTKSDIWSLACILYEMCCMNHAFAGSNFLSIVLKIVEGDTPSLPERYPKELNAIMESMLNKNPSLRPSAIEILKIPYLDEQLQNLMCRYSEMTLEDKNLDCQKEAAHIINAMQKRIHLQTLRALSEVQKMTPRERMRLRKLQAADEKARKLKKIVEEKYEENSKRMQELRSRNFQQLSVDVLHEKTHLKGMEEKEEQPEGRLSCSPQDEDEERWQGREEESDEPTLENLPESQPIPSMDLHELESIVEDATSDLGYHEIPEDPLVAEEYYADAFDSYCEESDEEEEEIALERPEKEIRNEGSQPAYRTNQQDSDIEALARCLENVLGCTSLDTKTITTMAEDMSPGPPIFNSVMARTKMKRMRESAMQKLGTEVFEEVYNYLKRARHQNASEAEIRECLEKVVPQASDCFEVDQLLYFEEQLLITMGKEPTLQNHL

`Cc1cc(Nc2cc(N3CCN(C)CC3)nc(Sc3ccc(NC(=O)C4CC4)cc3)n2)n[nH]1` [Compound E, Cyclopropane carboxylic acid {4-[4-(4-methyl-piperazin-1-yl)-6-(5-methyl-2H-pyrazol-3-ylamino)-pyrimidin-2-ylsulphanyl]-phenyl}-amide] was tested, and the remaining activity at 0.2 µM (PAK5(h)) was 93%, the remaining activity at 4 µM (PAK5(h)) was 68% and the remaining activity at 0.2 µM (CaMKIV(h)) was 100%. For the same compound, the remaining activity at 4 µM (CaMKIV(h)) was 99%, the remaining activity at 0.2 µM (Flt3(D835Y)(h)) was 50% and the remaining activity at 4 µM (Flt3(D835Y)(h)) was 7%. For the same compound, the remaining activity at 0.2 µM (NEK11(h)) was 106%, the remaining activity at 4 µM (NEK11(h)) was 106% and the remaining activity at 0.2 µM (Hck(h)) was 98%. The remaining activity at 4 µM (Hck(h)) was 45%, the remaining activity at 0.2 µM (PASK(h)) was 98% and the “percentage of enzyme activity that remains” value (CSK(h); 0.2 μM Compound E) was 108%. For the same compound, the “percentage of enzyme activity that remains” value (CSK(h); 4 μM Compound E) was 87%, the remaining activity at 0.2 µM (PKG1β(h)) was 87% and the remaining activity at 4 µM (PKG1β(h)) was 87%. It also gave a remaining activity at 0.2 µM (WNK2(h)) of 107%, a remaining activity at 4 µM (WNK2(h)) of 90% and a remaining activity at 0.2 µM (Rse(h)) of 94%. It also gave a remaining activity at 4 µM (Rse(h)) of 77%, a remaining activity at 0.2 µM (ZAP-70(h)) of 75% and a remaining activity at 4 µM (ZAP-70(h)) of 64%. The remaining activity at 4 µM (PKG1α(h)) was 89%, the remaining activity at 0.2 µM (SAPK3(h)) was 132% and the remaining activity at 4 µM (SAPK3(h)) was 115%. The remaining activity at 0.2 µM (MSSK1(h)) was 110%, the remaining activity at 4 µM (MSSK1(h)) was 108% and the remaining activity at 0.2 µM (BrSK1(h)) was 115%. It also gave a remaining activity at 4 µM (BrSK1(h)) of 97%, a remaining activity at 0.2 µM (Pim-2(h)) of 110% and a remaining activity at 4 µM (Pim-2(h)) of 124%. For the same compound, the remaining activity at 4 µM (p70S6K(h)) was 92%, the remaining activity at 0.2 µM (ROCK-II(h)) was 93% and the remaining activity at 4 µM (ROCK-II(h)) was 106%. The “percentage of enzyme activity that remains” value (Met(h); 0.2 μM Compound E) was 105%, the “percentage of enzyme activity that remains” value (Met(h); 4 μM Compound E) was 50% and the remaining activity at 0.2 µM (Flt3(h)) was 21%. It also gave a remaining activity at 4 µM (Flt3(h)) of 7%, a remaining activity at 0.2 µM (MINK(h)) of 103% and a remaining activity at 4 µM (MINK(h)) of 82%. The remaining activity at 0.2 µM (TBK1(h)) was 106%, the remaining activity at 4 µM (TBK1(h)) was 57% and the remaining activity at 0.2 µM (NEK6(h)) was 86%. For the same compound, the remaining activity at 4 µM (NEK6(h)) was 85%, the “percentage of enzyme activity that remains” value (JAK2(h); 0.2 μM Compound E) was 75% and the “percentage of enzyme activity that remains” value (JAK2(h); 4 μM Compound E) was 19%. For the same compound, the remaining activity at 0.2 µM (MSK2(h)) was 117%, the remaining activity at 4 µM (MSK2(h)) was 97% and the “percentage of enzyme activity that remains” value (SAPK2a(h); 0.2 μM Compound E) was 116%. The “percentage of enzyme activity that remains” value (SAPK2a(h); 4 μM Compound E) was 123%, the remaining activity at 0.2 µM (DMPK(h)) was 95% and the remaining activity at 4 µM (DMPK(h)) was 103%. For the same compound, the remaining activity at 0.2 µM (BrSK2(h)) was 102%, the remaining activity at 4 µM (BrSK2(h)) was 96% and the “percentage of enzyme activity that remains” value (IRAK4(h)) was 90%. For the same compound, the remaining activity at 0.2 µM (MLK1(h)) was 54% and the remaining activity at 4 µM (MLK1(h)) was 9%.
